pIC50: −log10 of the molar value.
System: Rattus norvegicus
Test: Anti-inflammatory activity against Carrageenan-induced paw edema in rat assessed as reduction in edema measured after 6 hrs relative to control
Assay type: functional
Parameters: concentration or dose not given beside the values
Conditions: not given

**Q.** With `Cc1c(C(=O)/C=C/c2ccc(Cl)cc2Cl)c(C(=O)/C=C/c2ccc(Cl)cc2Cl)nn1-c1ccccc1` as the compound, how does the Activity read?
**A.** The Activity was 12.86%.

**Q.** For `COc1ccc(/C=C/C(=O)c2nn(-c3ccc(F)cc3)c(C)c2C(=O)/C=C/c2ccc(OC)cc2)cc1`, which Activity is on record?
**A.** The Activity was 65.21%.

**Q.** With `Cc1c(C(=O)/C=C/c2ccco2)c(C(=O)/C=C/c2ccco2)nn1-c1ccc(Cl)cc1` as the compound, how does the Activity read?
**A.** The Activity was 27.86%.

**Q.** Which Activity does the source give for `Cc1c(C(=O)/C=C/c2ccc(Cl)cc2Cl)c(C(=O)/C=C/c2ccc(Cl)cc2Cl)nn1-c1ccc(Cl)cc1` here?
**A.** The Activity was 15.36%.

**Q.** With `Cc1ccc(-n2nc(C(=O)/C=C/c3ccc(Cl)cc3Cl)c(C(=O)/C=C/c3ccc(Cl)cc3Cl)c2C)cc1` as the compound, how does the Activity read?
**A.** The Activity was 10.71%.

**Q.** With `Cc1c(C(=O)/C=C/c2ccco2)c(C(=O)/C=C/c2ccco2)nn1-c1ccc(F)cc1` as the compound, how does the Activity read?
**A.** Its Activity is 16.79%.

**Q.** Which Activity does the source give for `Cc1c(C(=O)/C=C/c2ccc(Cl)cc2Cl)c(C(=O)/C=C/c2ccc(Cl)cc2Cl)nn1-c1ccc(F)cc1` here?
**A.** Its Activity is 13.57%.

**Q.** Which Activity does the source give for `Cc1c(C(=O)/C=C/c2ccc(Cl)cc2Cl)c(C(=O)/C=C/c2ccc(Cl)cc2Cl)nn1-c1ccc(Br)cc1` here?
**A.** Its Activity is 9.26%.

**Q.** Which Activity does the source give for `Cc1c(C(=O)/C=C/c2ccco2)c(C(=O)/C=C/c2ccco2)nn1-c1ccc(Br)cc1` here?
**A.** The Activity was 1.07%.

**Q.** Which Activity does the source give for `COc1ccc(/C=C/C(=O)c2nn(-c3ccc(Cl)cc3)c(C)c2C(=O)/C=C/c2ccc(OC)cc2)cc1` here?
**A.** Its Activity is 66.21%.

System: Rattus norvegicus
Test: Anti-inflammatory activity against carrageenan-induced paw edema in Sprague-Dawley rat assessed as reduction in edema measured after 3 hrs relative to indomethacin
Assay type: functional
Parameters: concentration or dose not given beside the values
Conditions: not given

**Q.** For `Cc1c(C(=O)/C=C/c2ccco2)c(C(=O)/C=C/c2ccco2)nn1-c1ccccc1`, which Activity is on record?
**A.** Its Activity is 61.45%.

**Q.** With `Cc1ccc(-n2nc(C(=O)/C=C/c3ccccc3)c(C(=O)/C=C/c3ccccc3)c2C)cc1` as the compound, how does the Activity read?
**A.** The Activity was 62.69%.

**Q.** With `Cc1ccc(-n2nc(C(=O)/C=C/c3ccco3)c(C(=O)/C=C/c3ccco3)c2C)cc1` as the compound, how does the Activity read?
**A.** Its Activity is 21.14%.

**Q.** With `Cc1c(C(=O)/C=C/c2ccccc2)c(C(=O)/C=C/c2ccccc2)nn1-c1ccccc1` as the compound, how does the Activity read?
**A.** The Activity was 77.66%.

**Q.** Which Activity does the source give for `COc1ccc(/C=C/C(=O)c2nn(-c3ccc(C)cc3)c(C)c2C(=O)/C=C/c2ccc(OC)cc2)cc1` here?
**A.** The Activity was 59.87%.

**Q.** With `Cc1ccc(-n2nc(C(=O)/C=C/c3ccc(Cl)cc3)c(C(=O)/C=C/c3ccc(Cl)cc3)c2C)cc1` as the compound, how does the Activity read?
**A.** The Activity was 59.87%.

**Q.** With `Cc1c(C(=O)/C=C/c2ccc(Cl)cc2)c(C(=O)/C=C/c2ccc(Cl)cc2)nn1-c1ccccc1` as the compound, how does the Activity read?
**A.** The Activity was 53.2%.

**Q.** With `COc1ccc(/C=C/C(=O)c2nn(-c3ccccc3)c(C)c2C(=O)/C=C/c2ccc(OC)cc2)cc1` as the compound, how does the Activity read?
**A.** Its Activity is 71.35%.

System: not listed separately
Test: Inhibition of LPS-induced NFkappaB activation in mouse RAW264.7 cells assessed as effect on LPS-induced nuclear translocation of NF-kappaB incubated for 1 hr
Assay type: cell-based
Conditions: RAW264.7, 1 h

**Q.** With `O=C1/C(=C/c2ccccn2)CNC/C1=C\c1ccccn1` as the compound, how does the pIC50 read?
**A.** The pIC50 was 5.35.

System: BV-2
Test: Antiinflammatory activity in mouse BV-2 cells assessed as reduction in LPS-induced nitric oxide production at 10 uM relative to control
Assay type: functional
Parameters: scale not given: the % may be the effect or the level left
Conditions: not given

**Q.** For `COc1cc(/C=C/C(=O)c2cccc(C(=O)/C=C/c3ccc(O)c(OC)c3)c2)ccc1O`, which Activity is on record?
**A.** The Activity was 70%.

System: Rattus norvegicus
Test: Anti-inflammatory activity against carrageenan-induced paw edema in Sprague-Dawley rat assessed as inhibition of paw edema at 10 mg/kg, ip measured after 3 hrs relative to control
Assay type: functional
Parameters: scale not given: the % may be the effect or the level left
Conditions: not given

**Q.** Which Activity does the source give for `Cc1c(C(=O)/C=C/c2ccco2)c(C(=O)/C=C/c2ccco2)nn1-c1ccccc1` here?
**A.** Its Activity is 28.15%.

**Q.** With `Cc1ccc(-n2nc(C(=O)/C=C/c3ccccc3)c(C(=O)/C=C/c3ccccc3)c2C)cc1` as the compound, how does the Activity read?
**A.** The Activity was 28.72%.

**Q.** With `Cc1ccc(-n2nc(C(=O)/C=C/c3ccco3)c(C(=O)/C=C/c3ccco3)c2C)cc1` as the compound, how does the Activity read?
**A.** The Activity was 9.69%.

**Q.** For `Cc1c(C(=O)/C=C/c2ccccc2)c(C(=O)/C=C/c2ccccc2)nn1-c1ccccc1`, which Activity is on record?
**A.** Its Activity is 32.58%.

**Q.** For `COc1ccc(/C=C/C(=O)c2nn(-c3ccc(C)cc3)c(C)c2C(=O)/C=C/c2ccc(OC)cc2)cc1`, which Activity is on record?
**A.** The Activity was 27.43%.

**Q.** Which Activity does the source give for `Cc1ccc(-n2nc(C(=O)/C=C/c3ccc(Cl)cc3)c(C(=O)/C=C/c3ccc(Cl)cc3)c2C)cc1` here?
**A.** Its Activity is 21.23%.

**Q.** With `Cc1c(C(=O)/C=C/c2ccc(Cl)cc2)c(C(=O)/C=C/c2ccc(Cl)cc2)nn1-c1ccccc1` as the compound, how does the Activity read?
**A.** The Activity was 24.37%.

**Q.** For `COc1ccc(/C=C/C(=O)c2nn(-c3ccccc3)c(C)c2C(=O)/C=C/c2ccc(OC)cc2)cc1`, which Activity is on record?
**A.** Its Activity is 32.69%.

System: RAW264.7
Test: Inhibition of LPS-induced NFkappaB activation in mouse RAW264.7 cells assessed as effect on LPS-induced nuclear translocation of NF-kappaB incubated for 1 hr at 5 uM relative to control
Assay type: cell-based
Conditions: not given

**Q.** For `O=C1/C(=C/c2ccccn2)CNC/C1=C\c1ccccn1`, which inhibition is on record?
**A.** Its inhibition is 100%.

Target: COX-1/COX-2 (Homo sapiens) (UniProt P35354+P23219)
Test: Selectivity index, ratio of IC50 for COX-1 (unknown origin) to IC50 for COX-2 (unknown origin)
Assay type: protein assay
Conditions: not given

Chain of COX-1/COX-2 (Homo sapiens) (P23219 whole entry, looked up, one chain of several): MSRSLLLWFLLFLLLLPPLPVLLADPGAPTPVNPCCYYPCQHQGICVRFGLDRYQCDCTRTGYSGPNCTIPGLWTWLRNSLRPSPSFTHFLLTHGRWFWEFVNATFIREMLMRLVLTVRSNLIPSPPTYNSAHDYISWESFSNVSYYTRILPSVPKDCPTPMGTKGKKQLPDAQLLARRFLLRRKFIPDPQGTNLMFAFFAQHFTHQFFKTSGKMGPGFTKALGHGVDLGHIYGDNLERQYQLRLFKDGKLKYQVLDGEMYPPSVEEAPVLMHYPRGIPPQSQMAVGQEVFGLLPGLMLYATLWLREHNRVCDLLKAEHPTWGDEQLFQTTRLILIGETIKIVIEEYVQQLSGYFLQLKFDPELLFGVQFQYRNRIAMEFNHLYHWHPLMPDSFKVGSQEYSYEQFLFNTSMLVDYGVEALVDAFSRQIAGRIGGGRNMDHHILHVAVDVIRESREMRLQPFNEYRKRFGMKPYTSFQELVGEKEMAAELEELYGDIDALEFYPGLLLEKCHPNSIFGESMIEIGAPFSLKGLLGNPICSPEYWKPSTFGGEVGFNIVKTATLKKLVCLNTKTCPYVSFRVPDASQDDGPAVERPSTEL

**Q.** For `COc1ccc(/C=C/C(=O)c2nn(-c3ccc(F)cc3)c(C)c2C(=O)/C=C/c2ccc(OC)cc2)cc1`, which Ratio IC50 is on record?
**A.** Its Ratio IC50 is 312.

**Q.** With `Cc1c(C(=O)/C=C/c2ccco2)c(C(=O)/C=C/c2ccco2)nn1-c1ccc(Cl)cc1` as the compound, how does the Ratio IC50 read?
**A.** The Ratio IC50 was 65.3.

**Q.** With `COc1ccc(/C=C/C(=O)c2nn(-c3ccc(Cl)cc3)c(C)c2C(=O)/C=C/c2ccc(OC)cc2)cc1` as the compound, how does the Ratio IC50 read?
**A.** The Ratio IC50 was 333.

System: Rattus norvegicus
Test: Anti-inflammatory activity against carrageenan-induced paw edema in Sprague-Dawley rat assessed as inhibition of paw edema at 10 mg/kg, ip measured after 6 hrs relative to control
Assay type: functional
Parameters: scale not given: the % may be the effect or the level left
Conditions: not given

**Q.** With `Cc1c(C(=O)/C=C/c2ccco2)c(C(=O)/C=C/c2ccco2)nn1-c1ccccc1` as the compound, how does the Activity read?
**A.** Its Activity is 28.61%.

**Q.** Which Activity does the source give for `Cc1ccc(-n2nc(C(=O)/C=C/c3ccccc3)c(C(=O)/C=C/c3ccccc3)c2C)cc1` here?
**A.** The Activity was 30.16%.

**Q.** With `Cc1ccc(-n2nc(C(=O)/C=C/c3ccco3)c(C(=O)/C=C/c3ccco3)c2C)cc1` as the compound, how does the Activity read?
**A.** The Activity was 11.33%.

**Q.** Which Activity does the source give for `Cc1c(C(=O)/C=C/c2ccccc2)c(C(=O)/C=C/c2ccccc2)nn1-c1ccccc1` here?
**A.** Its Activity is 38.9%.

**Q.** Which Activity does the source give for `COc1ccc(/C=C/C(=O)c2nn(-c3ccc(C)cc3)c(C)c2C(=O)/C=C/c2ccc(OC)cc2)cc1` here?
**A.** The Activity was 21.38%.

**Q.** Which Activity does the source give for `Cc1ccc(-n2nc(C(=O)/C=C/c3ccc(Cl)cc3)c(C(=O)/C=C/c3ccc(Cl)cc3)c2C)cc1` here?
**A.** Its Activity is 25.92%.

**Q.** With `Cc1c(C(=O)/C=C/c2ccc(Cl)cc2)c(C(=O)/C=C/c2ccc(Cl)cc2)nn1-c1ccccc1` as the compound, how does the Activity read?
**A.** The Activity was 28.31%.

**Q.** With `COc1ccc(/C=C/C(=O)c2nn(-c3ccccc3)c(C)c2C(=O)/C=C/c2ccc(OC)cc2)cc1` as the compound, how does the Activity read?
**A.** Its Activity is 35.92%.

Target: T1, Prostaglandin G/H synthase 2 (Homo sapiens, UniProt P35354)
T1 sequence (P35354 whole entry): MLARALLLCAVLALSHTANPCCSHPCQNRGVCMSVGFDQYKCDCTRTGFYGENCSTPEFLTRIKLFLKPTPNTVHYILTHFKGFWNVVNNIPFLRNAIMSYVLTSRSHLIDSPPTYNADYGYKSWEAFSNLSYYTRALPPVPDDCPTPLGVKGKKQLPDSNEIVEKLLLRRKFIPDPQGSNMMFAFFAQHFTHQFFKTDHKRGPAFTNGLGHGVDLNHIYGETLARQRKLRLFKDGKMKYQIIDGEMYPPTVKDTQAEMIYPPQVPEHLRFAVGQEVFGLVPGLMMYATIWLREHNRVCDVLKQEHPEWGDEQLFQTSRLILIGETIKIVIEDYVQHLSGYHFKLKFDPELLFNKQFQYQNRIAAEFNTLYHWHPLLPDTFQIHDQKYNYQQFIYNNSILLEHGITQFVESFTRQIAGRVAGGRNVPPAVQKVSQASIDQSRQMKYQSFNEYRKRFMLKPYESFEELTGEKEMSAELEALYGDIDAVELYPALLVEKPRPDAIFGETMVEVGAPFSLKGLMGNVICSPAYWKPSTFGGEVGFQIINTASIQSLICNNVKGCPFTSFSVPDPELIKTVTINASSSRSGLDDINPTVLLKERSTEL
Test: Inhibition of COX-2 (unknown origin)
Conditions: not given

**Q.** With `COc1ccc(/C=C/C(=O)c2nn(-c3ccc(F)cc3)c(C)c2C(=O)/C=C/c2ccc(OC)cc2)cc1` as the compound, how does the pIC50 read?
**A.** The pIC50 was 6.49.

**Q.** With `Cc1c(C(=O)/C=C/c2ccco2)c(C(=O)/C=C/c2ccco2)nn1-c1ccc(Cl)cc1` as the compound, how does the pIC50 read?
**A.** The pIC50 was 5.82.

**Q.** With `COc1ccc(/C=C/C(=O)c2nn(-c3ccc(Cl)cc3)c(C)c2C(=O)/C=C/c2ccc(OC)cc2)cc1` as the compound, how does the pIC50 read?
**A.** Its pIC50 is 6.52.

System: Rattus norvegicus
Test: Anti-inflammatory activity against carrageenan-induced paw edema in Sprague-Dawley rat assessed as reduction in edema measured after 6 hrs relative to indomethacin
Assay type: functional
Parameters: concentration or dose not given beside the values
Conditions: not given

**Q.** For `Cc1c(C(=O)/C=C/c2ccco2)c(C(=O)/C=C/c2ccco2)nn1-c1ccccc1`, which Activity is on record?
**A.** Its Activity is 58.6%.

**Q.** Which Activity does the source give for `Cc1ccc(-n2nc(C(=O)/C=C/c3ccccc3)c(C(=O)/C=C/c3ccccc3)c2C)cc1` here?
**A.** Its Activity is 61.76%.

**Q.** For `Cc1ccc(-n2nc(C(=O)/C=C/c3ccco3)c(C(=O)/C=C/c3ccco3)c2C)cc1`, which Activity is on record?
**A.** Its Activity is 23.2%.

**Q.** With `Cc1c(C(=O)/C=C/c2ccccc2)c(C(=O)/C=C/c2ccccc2)nn1-c1ccccc1` as the compound, how does the Activity read?
**A.** Its Activity is 79.67%.

**Q.** With `COc1ccc(/C=C/C(=O)c2nn(-c3ccc(C)cc3)c(C)c2C(=O)/C=C/c2ccc(OC)cc2)cc1` as the compound, how does the Activity read?
**A.** The Activity was 43.78%.

**Q.** With `Cc1ccc(-n2nc(C(=O)/C=C/c3ccc(Cl)cc3)c(C(=O)/C=C/c3ccc(Cl)cc3)c2C)cc1` as the compound, how does the Activity read?
**A.** Its Activity is 53.08%.

**Q.** With `Cc1c(C(=O)/C=C/c2ccc(Cl)cc2)c(C(=O)/C=C/c2ccc(Cl)cc2)nn1-c1ccccc1` as the compound, how does the Activity read?
**A.** Its Activity is 57.97%.

**Q.** For `COc1ccc(/C=C/C(=O)c2nn(-c3ccccc3)c(C)c2C(=O)/C=C/c2ccc(OC)cc2)cc1`, which Activity is on record?
**A.** Its Activity is 73.56%.
